Laboratory results as given in patent US5175156A, “Chromic picolinate treatment” (Nutrition 21, priority 1991, dated 1992).
Several values for one entry are separate records, joined by “and”; a condition that tells them apart may be missing. Equal entries are not always repeated. Entries after “also recorded” stand apart in the source; their conditions may differ.

How the values were obtained:
[1] = Absorption of orally administered chromium-51 compounds, radioactivity in liver and kidney (Example 1); conditions: rat; for Total radioactivity in tissue, Kidney / Total radioactivity in tissue, Liver: 150 ng oral gavage, 120 h after administration
Description: In this example, chromic tripicolinate was first synthesized by combining 3.66 grams of picolinic acid (Sigma Chemical, St. Louis) and 2.66 grams of chromic chloride with 20 ml. of deionized water. The solution was heated with stirring for 15 minutes after which the contents were placed in a refrigerator overnight to obtain maximum crystalization. The supernatant was removed by vacuum filtration followed by recrystalization from hot deionized water. To synthesize chromic (chromium-51) tripicolinate, 0.12 micromoles recrystalized picolinic acid was added to a solution containing 0.03 micromoles of chromic (Cr^51) chloride in 5.0 ml. acetate buffer, pH 5.0. The solution was stirred for 30 minutes at 90° C., cooled and subsequently reheated for 30 minutes at 90° C. The solution was cooled to room temperature before use.
Each of four male Sprague-Dawley rats weighing 125-150g was given an oral dose of 150 ng. chromic (Cr-51) picolinate in 0.51 ml. by gavage tube. An identical quantity of Cr-5I as chloride in acetate buffer was also administered to each of four rats. […] One hundred twenty hours after oral administration of the two forms of labeled chromium, each of the rats was killed by exsanguination after which the liver and kidneys were removed and cut into 1.0 g portions for assay of radioactivity content.

[2] = in vivo; cited from earlier work
[3] = in vivo
Description: Subjects for the study were obtained after screening a group of volunteers. Thirty-two volunteers age 25-80 with total cholesterol levels of 5.7-8.3 mmoles/l (220-320 mg/dl) were initially chosen. […] None of the subjects was using beta blockers, thiazide diuretics, steroids, chromium supplements or any investigational drugs. The volunteers were requested not to alter dietary or exercise habits during the course of the study. Informed consent was obtained and the subjects were paid a stipend for their participation.
For the double-blind, cross-over study, subjects were divided randomly into two treatment groups by a non-participant. During each half of the study participants ingested gelatin capsules that contained either chromic tripicolinate or a placebo. The chromic tripicolinate supplement contained 1.6 mg chromium tripicolinate (200 micrograms Cr^+3) mixed with 5 mg calcium phosphate. The placebo contained only 5 mg calcium phosphate. The study consisted of two 42-day periods with a 14-day period off capsules between treatments. Compliance by subjects was monitored by capsule count.
At the beginning, after three weeks and at the end of each period, heart rate, blood pressure, weight and temperature were measured and a fasting-blood sample was drawn. Serum parameters measured included total cholesterol, LDL-cholesterol, HDL-cholesterol, triglycerides, apolipoprotein A1 and apolipoprotein B. Serum concentrations of cholesterol and triglycerides were determined with an Olympus 500 Automated Colormetric System (Olympus Instrument Co., Los Angeles, Calif., U.S.A.). HDL-cholesterol was assayed with an enzyme heparin-manganese chloride precipitation method (Albers et al., Clin Chem., 1978; 24:853-856). LDL-cholesterol was estimated by the method of Friedwald (Friedwald, Clin Chem., 1972; 18:499-502). Concentrations of apolipoprotein A1 and apolipoprotein B in serum were assayed with a nephelometric immunoassay (Naito, J. Clin. Immunol.. 1986; 9:110-120) using a Boehringer laser kit.
For statistical analysis of the measurements made in this study, the values obtained at the beginning and at the end of each 42-day period were used. Because each subject served as its own control, paired t tests were used to identify statistically significant differences between mean values of changes and differences in changes. Student's t test and p values were determiend with the program WORMSTAT™ (available from Small Business Computers, New England, Conn., U.S.A.).

[4] = Anabolic effect in male university students in weight training (Example 5); type: in vivo, human
Description: This study was performed to evaluate the anabolic effect of chromic tripicolinate in male subjects.
At the start of the study, 10 male university students enrolled in weight training classes, were given, at random, a 40-day supply of capsules that contained either placebo (5 mg of calcium phosphate) or chromic tripicolinate ([…] chromic tripicolinate admixed with 5 mg of calcium phosphate, which provided 200 ug of chromium). The identity of the capsules was known only to an individual who was not in any way involved in the study. During the 40-day period, each of the volunteers followed a prescribed weight lifting protocol for a total of 3 hours per week. Measurements taken at the beginning and again at the end of the study included various skin-fold thicknesses, biceps and calf circumferences, and body weight. Percent body fat was derived from the sum of the triceps, subscapular and chest skinfolds. Lean body mass was derived from anthropometrically-determined percent body fat: weight-(weight×percent body fat).

[5] = tested on: adult onset diabetes mellitus (AODM)
Description: Eleven subjects with adult onset diabetes mellitus (AODM), participated in this study. These subjects had hemoglobin A1 C concentrations greater than 9.0 and were on stable doses of oral hypoglycemic agents for four months. […] The dose of oral agent remained constant during the study.
The following parameters: Cholesterol, HDL, LDL, and hemoglobin A1 C were tested initially, and at the end of each half of the study. Fasting blood sugars, blood pressure, weight and temperature were tested initially; at three weeks; and at the end of the study.
Glycosylated hemoglobin was measured by a modification of the method of Clegg and Schroeder (Clegg, et al. J. Lab Clin. Med., 102:577-589, (1983)), using a Fast Hemoglobin Minicolumn, available from Isolab; Akron, Ohio, U.S.A.). Normal values are 5.5 to 7.5%. Fasting glucoses were measured by finger stick glucometer readings (using an Accucheck II from Boehringer Mannheim, Indianapolis, Ind., U.S.A.).
Split samples of cholesterol were sent to laboratories for analysis. Split samples of apolipoproteins were analyzed on a Beckman Array protein analyzer that was standardized by the Center for Disease Control, Atlanta, Georgia, U.S.A., using Lipid Research Clinic Guidelines (see J. A. M. A. 251: 351, (1984) and J. A. M. A. 251: 365, (1984)).
For EXAMPLE 4, summary statistics are expressed as the mean ± standard error of the mean (SEM). Split-plot analyses of variance were used to assess treatment effects on the various parameters in the cross-over studies of variance (see Hills, et al., Br. J. Clin. Pharmacol. 8:7-20, (1979)). Correlation analysis was performed with a linear regression curve-fitting program.

[6] = tested on: insulin and insulin receptors; experiment: Binding to insulin and insulin receptors; conditions: no data given
[7] = tested on: Glucose Tolerance Factor activity; experiment: Glucose Tolerance Factor activity; conditions: no data given
serum lipid parameters = experiment: Double-blind cross-over human study, serum lipid parameters (Example 3); type: in vivo
Description: Chromium tripicolinate was synthesized by first dissolving 2.66 g CrCl3.6 H2 O in 25 ml warm (60° C.), deionized water. Thereafter, 3.69 g picolinic acid (Sigma Chemical, St. Louis, Mo., U.S.A.) was added and the contents were stirred with gentle heating until the solution turned purple and crystals began to form. The solution was then left standing at 4° C. overnight. The supernatant was then discarded and the crystals were airdried at room temperature.
The placebo contained only 5 mg calcium phosphate. […] Compliance by subjects was monitored by capsule count. The foregoing study protocol is illustrated in FIG. 1.

[8] = Oral toxicity experiment in rats (Example 2); type: in vivo
Description: In a toxicity experiment, rats weighing a mean of 223.4 g were given an oral suspension of 100 mg, 300 mg and 500 mg chromic tripicolinate in water. […] The tests were stopped at 500 mg because it was impossible to obtain a workable suspension beyond this level.

[9] = 6 weeks Cr supplementation, 11 AODM subjects, mean ± SEM
[10] = 6 weeks Cr supplementation, 11 AODM subjects, mean ± SEM, significant difference from placebo, p <0.05
[11] = 28 subjects, mean ± SD, 42 days
[12] = 28 subjects, mean ± SD, 42 days, listed as Chromic Tripicolinate
[13] = 28 subjects, mean ± SD, start of 42-day period
[14] = combined results, 42 days, p<0.001

[Cl][51Cr]([Cl])[Cl] [Chromic (Cr-51) Chloride, chromic (Cr^51) chloride, reference compound]
Total radioactivity in tissue, Kidney [1]: 39030 CPM | Total radioactivity in tissue, Liver [1]: 30050 CPM

O=C([O-])c1ccccn1.O=C([O-])c1ccccn1.O=C([O-])c1ccccn1.[Cr+3] [Chromic (Cr-51) Picolinate, chromic (chromium-51) tripicolinate]
Total radioactivity in tissue, Kidney [1]: 157525 CPM | Total radioactivity in tissue, Liver [1]: 115075 CPM

[Cl][Cr]([Cl])[Cl] [chromic chloride, reference compound]
effect of supplementation, result in words [2]: improvements of risk factors associated with maturity-onset diabetes and cardiovascular diseases

[Cr] [chromium]
effect of supplementation, result in words [2]: improvements in glucose tolerance, serum lipid concentrations, including high-density lipoprotein cholesterol, insulin and insulin binding

chromic tripicolinate
blood pressure, change in words [3]: No significant changes | heart rate, change in words [3]: No significant changes | subjects who developed a fine rash about their forearms [3]: one | subjects who developed mouth ulcers [3]: one | temperature, change in words [3]: No significant changes | calculated lean body mass, increase ([4]; 40 days, 200 ug chromium, P=0.017): 1.6 kg | calf circumference, increase ([4]; 40 days, 200 ug chromium, P=0.029): 1.15±0.67 cm | body weight, increase ([4]; 40 days, 200 ug chromium, P=0.0325): 2.18 ± 1.34 kg | increase in lean body mass compared with placebo group ([4]; Student's t test, P=0.0198): significantly greater | rate of absorption relative to chromic chloride ([1]; in vivo, po, 7200 min): about 4 times | Cholesterol [5, 9]: 211.4 | HDL [5, 9]: 52.3 | LDL [5, 9]: 139.5 | Fasting Bld Sugar [5, 10]: 162.2 | Hemoglobin A1 C [5, 10]: 10.4 | HDL, trend in words ([5]; P was not <0.05): trends were favorable | cholesterol, trend in words ([5]; P was not <0.05): trends were favorable | fasting glucose, change in words ([5]; diabetic subjects): significant decreases | glycosylated hemoglobin, change in words ([5]; diabetic subjects): significant decreases | Blood Pressure, first figure ([5]; human, in vivo): 132.9 | Blood Pressure, second figure ([5]; human, in vivo): 72.4 | Heart Rate ([5]; human, in vivo): 70.1 | Temperature ([5]; human, in vivo): 97.8 °F | blood pressure, change in words ([5]; human, in vivo): no significant changes | heart rate, change in words ([5]; human, in vivo): no significant changes | temperature, change in words ([5]; human, in vivo): no significant changes | weight, change in words ([5]; human, in vivo): no significant changes | LDL, decrease ([5]; treatment versus placebo (FIG. 9)): 8% | binding to insulin and insulin receptors [6]: binds to insulin and insulin receptors | Glucose Tolerance Factor activity [7]: has Glucose Tolerance Factor activity | Apo B, change (serum lipid parameters; 28 subjects, 42 days, p = .001): -25 mg/dL | Apo A, change (serum lipid parameters; 28 subjects, 42 days, p = .003): +16 mg/dl | apolipoprotein B, reduction (serum lipid parameters; 28 subjects, 42 days, p=0.001): 16% | LDL-cholesterol, final (serum lipid parameters; 28 subjects, after 42 days): 178 mg/dL | LDL-cholesterol, initial (serum lipid parameters; 28 subjects, before 42 days): 200 mg/dL | Apo A, final (serum lipid parameters; [11]): 163 ± 31 mg/dL | Apo B, final (serum lipid parameters; [11]): 130 mg/dL | Cholesterol Total, final (serum lipid parameters; [11]): 256 mg/dL | LDL, final (serum lipid parameters; [11]): 5.1 mmol/L | Cholesterol Total, final (serum lipid parameters; 28 subjects, mean ± SD, 42 days, 200 micrograms Cr daily): 6.6 mmol/L | Cholesterol Total, final (serum lipid parameters; 28 subjects, mean ± SD, 42 days, 200 micrograms Cr daily, listed as Chromic Tripicolinate): 6.6 ± 1.0 mmol/L | Apo B, final (serum lipid parameters; [12]): 130 ± 45 mg/dL | Cholesterol Total, final (serum lipid parameters; [12]): 256 ± 41 mg/dL | Apo A, initial (serum lipid parameters; [13]): 147 ± 28 mg/dL | Apo B, initial (serum lipid parameters; [13]): 155 mg/dL | LDL, initial (serum lipid parameters; [13]): 5.7 mmol/L | Apo B, initial (serum lipid parameters; 28 subjects, mean ± SD, start of 42-day period, listed as Chromic Tripicolinate): 155 ± 50 mg/dL | serum HDL-cholesterol, change in words (serum lipid parameters; 28 subjects, p>0.05): increased slightly but not significantly | LDL-cholesterol, decrease (serum lipid parameters; 42 days): 10% and 10.5% | Total cholesterol concentration, decrease (serum lipid parameters; 42 days): 7% | serum triglycerides, change in words (serum lipid parameters; 42 days): No significant changes | LDL-cholesterol, change in words (serum lipid parameters; [14]): decreased significantly; also recorded: significant (p<0.001) reductions | total cholesterol, change in words (serum lipid parameters; [14]): decreased significantly; also recorded: significant (p<0.001) reductions | apolipoprotein B, change in words (serum lipid parameters; combined results, 42 days, p=0.001): significant reduction; also recorded: decreased significantly | apolipoprotein A1, change in words (serum lipid parameters; combined results, 42 days, p=0.003): significant elevation; also recorded: significantly elevated | LDL-cholesterol, change in words (serum lipid parameters; final 42 days, placebo-first group, p=0.003): decreased significantly | total cholesterol, change in words (serum lipid parameters; final 42 days, placebo-first group, p=0.009): decreased significantly | apolipoprotein B, change in words (serum lipid parameters; first 6-week period, subjects starting with chromic tripicolinate, p=0.003): significantly decreased | total cholesterol, change in words (serum lipid parameters; first 6-week period, subjects starting with chromic tripicolinate, p=0.007): significantly decreased | LDL-cholesterol, change in words (serum lipid parameters; first 6-week period, subjects starting with chromic tripicolinate, p=0.015): significantly decreased | apolipoprotein A1, change in words (serum lipid parameters; first 6-week period, subjects starting with chromic tripicolinate, p=0.047): significantly elevated | subjects with decreased LDL-cholesterol (serum lipid parameters; of 28 subjects): 20 | subjects with elevated cholesterol (serum lipid parameters; of 28 subjects): 4 | subjects with lower total cholesterol (serum lipid parameters; of 28 subjects): 22 | subjects with unchanged LDL-cholesterol (serum lipid parameters; of 28 subjects): 3 | subjects with unchanged total cholesterol (serum lipid parameters; of 28 subjects): 2 | apolipoprotein B, change in words (serum lipid parameters; placebo-first group, after chromic tripicolinate, p=0.072): decreased, but not significantly | apolipoprotein A1, change in words (serum lipid parameters; placebo-first group, chromic tripicolinate period, p=0.007): increased significantly | human dose before any effects would be observed ([8]; 70 Kg human, extrapolated from rats): greater than 156 grams | oral lethal dose ([8]; rats, mean 223.4 g, oral suspension in water): > 2.2 g/kg | deaths ([8]; rats, oral 100 mg, 300 mg and 500 mg): No deaths occurred
